Source: the NIST ThermoML archive (doi:10.1016/j.jct.2007.03.009)
Several values for one entry are separate records, joined by “and”; a condition that tells them apart may be missing. Identical values can stand only once. Numbers after ± are expanded uncertainties.

Settings: for mass density: 298 K, 101.33 kPa, Liquid, masses and of the volumes of pellets.; for vapor or sublimation pressure / Normal melting temperature: Crystal; for vapor or sublimation pressure: Knudsen effusion; for Normal melting temperature: DTA

mass density [kg/m3]	Normal melting temperature [°C]	SMILES	vapor or sublimation pressure (323.27 K)	vapor or sublimation pressure (325.24 K)	vapor or sublimation pressure (327.12 K)	vapor or sublimation pressure (329.26 K)	vapor or sublimation pressure (331.23 K)	vapor or sublimation pressure (333.11 K)	vapor or sublimation pressure (335.12 K)	vapor or sublimation pressure (337.26 K)	vapor or sublimation pressure (339.12 K)	vapor or sublimation pressure (341.22 K)	vapor or sublimation pressure (343.25 K)
1081 ± 22	133.5 ± 0.5	O=C1c2ccccc2C(=O)N1CCl [N-(chloromethyl)phthalimide]	0.000111 ± 2e-05 kPa and 0.000106 ± 2e-05 kPa	0.000138 ± 2.1e-05 kPa and 0.000137 ± 2.1e-05 kPa and 0.000132 ± 2.1e-05 kPa	0.000171 ± 2.1e-05 kPa and 0.000168 ± 2.1e-05 kPa and 0.000169 ± 2.1e-05 kPa	0.000218 ± 2.1e-05 kPa and 0.000207 ± 2.1e-05 kPa and 0.00022 ± 2.1e-05 kPa	0.000282 ± 2.2e-05 kPa and 0.00027 ± 2.2e-05 kPa and 0.000262 ± 2.2e-05 kPa	0.00033 ± 2.3e-05 kPa and 0.000328 ± 2.3e-05 kPa and 0.000329 ± 2.3e-05 kPa	0.00042 ± 2.5e-05 kPa and 0.000413 ± 2.5e-05 kPa and 0.000402 ± 2.5e-05 kPa	0.000534 ± 2.8e-05 kPa and 0.000519 ± 2.7e-05 kPa and 0.000507 ± 2.7e-05 kPa	0.000648 ± 3e-05 kPa and 0.000644 ± 3e-05 kPa and 0.000618 ± 3e-05 kPa	0.000835 ± 3.6e-05 kPa and 0.000801 ± 3.5e-05 kPa and 0.00077 ± 3.4e-05 kPa	0.001007 ± 4.1e-05 kPa and 0.000989 ± 4e-05 kPa and 0.000946 ± 3.9e-05 kPa
1218 ± 24	82.8 ± 0.5	O=C1c2ccccc2C(=O)N1CCCl [N-(2-chloroethyl)phthalimide]	–	–	–	–	–	–	–	–	–	–	–
1323 ± 26	81.5 ± 0.5	O=C1c2ccccc2C(=O)N1CCBr [N-(2-bromoethyl)phthalimide]	–	–	–	–	–	–	–	–	–	–	–
1051 ± 21	72.8 ± 0.5	O=C1c2ccccc2C(=O)N1CCCBr [N-(3-bromopropyl)phthalimide]	–	–	–	–	–	–	–	–	–	–	–
